Test [1] is described as follows: Inhibition of specific binding of [3H]DTG to sigma receptor in Guinea pig brain membranes.
The nature of test [2]: Inhibition of specific binding of [3H]3-PPP to sigma receptor in Guinea pig brain membranes.
The target of test [3] is Sigma non-opioid intracellular receptor 1 (Cavia porcellus) (UniProt Q60492). The test can be described thus: Inhibition of specific binding of [3H]DTG to sigma binding site in Guinea pig brain membranes.
For test [4] the target is unchanged. The experiment in a line: Inhibition of specific binding of [3H]NANM of sigma binding site in Guinea pig brain membranes.
Test [5] can be described thus: Inhibition of specific binding of [3H]3-PPP to sigma binding site in Guinea pig brain membranes.
Test [6] deals with Sigma non-opioid intracellular receptor 1 (Cavia porcellus) (UniProt Q60492). The test can be described thus: Inhibition of specific binding of [125I]-PIPAG to sigma binding site in Guinea pig brain membranes.

Among the data in BindingDB's records for doi:10.1021/jm00103a005 (National Institute On Drug Abuse, 1993) are IC50 values, retold here.

Each structure is given as a SMILES string. Counter-ions that a name gives are not always drawn.

The IC50 is the midpoint of a concentration-inhibition curve. The low end stands for greater potency, the high end for weaker potency.

Sigma non-opioid intracellular receptor 1 (Cavia porcellus), sequence (Q60492 whole entry, looked up): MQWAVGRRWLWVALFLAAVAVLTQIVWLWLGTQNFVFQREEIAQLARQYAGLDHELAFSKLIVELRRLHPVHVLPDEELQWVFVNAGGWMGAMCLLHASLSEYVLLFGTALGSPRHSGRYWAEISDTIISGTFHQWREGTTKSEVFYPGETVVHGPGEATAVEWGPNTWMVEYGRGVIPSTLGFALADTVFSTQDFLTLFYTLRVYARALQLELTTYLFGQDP

For the compound `C=CCN1CC[C@]23c4c5ccc(O)c4O[C@H]2[C@@H](O)C=C[C@H]3[C@H]1C5` [NALORPHINE HYDROCHLORIDE], the IC50 in test [1] amounted to 625 nM; in test [2], 93 nM; in test [3], 4000 nM; in test [4], 1800 nM; in test [5], 2850 nM; in test [6], 5000 nM.

`CN1CCc2cccc3c2[C@H]1Cc1ccc(O)c(O)c1-3` [APOKYN]: the results for the concentration for half-maximal inhibition (IC50) in test [3], in test [4] and in test [6] were above 10000 nM, above 31000 nM and above 10000 nM, respectively.
